Experiment [1] has as its system fetal rat osteoblast-like cells. Kind of experiment: Osteoblast proliferation assay, cell counts. It counts as cell-based. To be noted: for cell number relative to control osteoblasts: primary cultures of osteoblasts, final concentration of 1 nm. Here is the method: (§1) Osteoblasts were isolated by collagenase digestion from 20-day fetal rat calvariae. The calvariae were then treated twice with phosphate buffered saline (PBS; Gibco, Grand Island, N.Y.) containing 3 Mm […] (EDTA; Sigma Chemical Co., St. Louis, Mo.) for 15 minutes at 37° C. in a shaking water bath. After washing once in PBS, 3 ml of 1 mg/ml collagenase (Sigma Chemical Co.) was added to the calvariae for 10 minutes at 37° C. After discarding the supernatant, the calvariae were treated twice with 2 mg/ml collagenase (30 mins, 37° C.). The supernatants were then centrifuged and the cells washed in Dulbecco's Modified Eagle's Medium (DMEM; Gibco Labs, Grand Island, N.Y.) with 10% fetal calf serum (FCS), suspended in further DMEM/10% FCS, and placed in […] flasks. The cells were incubated under 5% CO2 and 95% air at 37° C.
(§2) Confluence was reached by 5-6 days, at which time the cells were subcultured. After trypsinization using trypsin-EDTA (0.05%/0.53 […]; Gibco Labs, Grand Island, N.Y.), the cells were rinsed in Minimal Essential Medium (MEM; Gibco Labs) with 10% FCS and resuspended in MEM with 5% FCS, then seeded (10^5 cells/ml) in 24-well plates (0.5 ml cell suspension per well, i.e., 5×10^4 cells/well)
(§3) Cell proliferation studies (i.e., cell counts and thymidine incorporation) were performed both in actively-growing and growth-arrested cell populations. To produce actively-growing cells, subconfluent populations (24 hrs after subculturing) were changed to fresh MEM which contained 1% FCS and the test compounds. To produce growth-arrested cells, subconfluent populations were changed to serum-free medium with 0.1% bovine serum albumin plus the test compounds.
The effect of adrenomedullin on proliferation of fetal rat osteoblast-like cells was first assessed by the measurement of cell numbers. Cell counts were analyzed at 6, 24, and 48 hours after addition of the test compound or vehicle. The cell numbers were determined after removing cells from the wells by exposure to trypsin/EDTA (0.05%/0.53 Mm) for 5 minutes at 37° C. Counting was performed in a hemocytometer chamber. Results were expressed per well. […] This stimulation was maintained for at least 48 hours.

Experiment [2] shares this test system. The experiment is described as follows: DNA synthesis, [3H]-thymidine incorporation into osteoblasts. The class given is cell-based. To be noted: for thymidine incorporation: primary cultures of osteoblasts, 1 nm; for [3H]-thymidine incorporation: 10^−10M, 24 hours. Here is the method:
as §1, §2, §3
The effect of adrenomedullin on DNA synthesis in osteoblasts was then assessed by the measurement of [^3H]-thymidine incorporation into isolated fetal rat osteoblast-like cells. [^3H]-thymidine incorporation into actively-growing and growth-arrested cells was assessed by pulsing the cells with [^3H]-thymidine (1 μCi/ml) (Amersham, Arlington Heights, Ill.) two hours before the end of the experimental incubation. The experiment was terminated at 6, 24, or 48 hours by washing the cells in MEM with cold thymidine followed by 10% trichloroacetic acid. The precipitate was washed twice with ethanol:ether (3:1), and the wells were desiccated at room temperature. The residue was redissolved in 0.5 M KOH at 85° C. for 30 mins, neutralized with 1 M Hcl, and an aliquot counted for radioactivity. Results were expressed as cpm per well.
(In general: Dividing cells build labelled thymidine or BrdU into new DNA.)

In experiment [3] the test system is neonatal mouse calvariae. Kind of experiment: Bone organ culture, [3H]-thymidine incorporation. The class given is cell-based. To be noted: 48 hours, 10−7 M to 10^−10 M, same experiments. Here is the method:
(§4) Bone resorption studies were carried out in neonatal mouse calvariae as previously described (Reid, et al., Endocrinology 126:1416-1420 (1990)). Mice were injected subcutaneously with 5 μCi ^45Ca (Amersham) at 2 days of age, and hemi-calvariae were dissected out 4 days later. Hemi-calvariae were pre-incubated for 24 hours in medium 199 (Gibco BRL, Grand Island, N.Y.) with 0.1% bovine serum albumin, then changed to fresh medium containing adrenomedullin or control vehicle. Incubation was continued for a further 48 hours. In the last 4 hours of incubation [^3H]-thymidine was incorporated into the organ cultures as described previously (Lowe, et al., Calif. Tissue Int. 49-394-397 (1991)). There were 5-7 calvariae in each group.

Experiment [4] relates to neonatal mouse calvariae. The experiment is described as follows: Bone organ culture, bone resorption (45Ca release). The class given is cell-based. To be noted: 48 hours, concentrations of 10−7 M to 10^−10 M. Here is the method: as §4
For experiment [5], the system named is adult mouse calvariae. Kind of experiment: Local effects on bone histology in vivo, histomorphometry of hemicalvariae. As to the method:
The local effects of adrenomedullin on bone histology in vivo were assessed in adult mice using a previously described model (Cornish et al., Endocrinology 132:1359-1366, 1993). Sexually mature male ARC Swiss Webster mice aged between 40 and 50 days and weighing […] were given injections (25 μl) over the periosteum of the right hemicalvariae for 5 consecutive days. […] The animals were maintained on a low calcium diet (0.1%) from 5 days prior to the first injection. […] These doses were chosen based on experience with other bone-active peptides in this model. Animals in the control group (n=16) were injected with vehicle (water) only. All animals were sacrificed 1 week following the last injection. The study had the approval of the local institutional review board.
The calvariae were dissected free of soft tissue, and gross morphology was assessed by examination of the intact calvariae under a dissection microscope. Bone tissue was fixed in 10% phosphate-buffered formalin, dehydrated in a graded series of ethanol solutions and embedded undecalcified in methyl methacrylate resin. Sections (4 μm thick) were cut on a Leitz rotary microtome (Leica Instruments, Nussloch, Germany) using a tungsten-carbide knife, then mounted on gelatin-coated slides and air-dried. The sections were stained with a Goldner tri-chrome stain and examined using an Olympus BX 50 microscope (Olympus Optical Co Ltd, Tokyo, Japan) which was attached to an Osteomeasure Image Analyzer (Osteometrics Inc., Atlanta, Ga.). Histomorphometric analyzes were made of three adjacent fields (using a 20× objective) in each hemicalvaria.
The parameters assessed are as defined by the American Society for Bone and Mineral Research (Parfitt et al. J. Bone Miner. Res. 2:595-610, (1987)), and are expressed per mm of calvarial length. Osteoblasts were defined as cells immediately adjacent to osteoid. Osteoclast numbers included only multinucleated cells. The various surface estimates were based on measurements of both periosteal and intramembranous surfaces: those eroded by osteoclasts (eroded perimeter), those immediately adjacent to osteoclasts (osteoclast perimeter), and those immediately adjacent to osteoblasts (osteoblast perimeter). The precision of these histomorphometric measurements in these studies (expressed as coefficients of variation of paired. measurements) are as follows: mineralized bone area 1.3%, osteoid area 6.9%, osteoblast perimeter 6.8%, osteoblast number 1.7%, eroded perimeter 6.7%, osteoclast perimeter 7.9%, osteoclast number <1.0%, and calvarial length 0.2%. All measurements were made by one operator who was blinded to the treatment group of each bone.
In the in vivo experiment, the primary end-point for each histomorphometric index was the determination of whether it was different in the injected right hemicalvaria from the contralateral, uninjected bone of the same animal. The absolute values of each histomorphometric index are presented for the injected and uninjected hemicalvariae by treatment group in Tables 1-3. […] Tables 1-3. Effects of Adrenomedullin on Histomorphometric Indices in Adult Mouse Calvariae in vivo*

Setting [6] is: Injected hemicalvaria, Adrenomedullin 4 × 10^−10 mol, mean, per mm of calvarial length.
Setting [7] is: Uninjected hemicalvaria, Adrenomedullin 4 × 10^−10 mol, mean, per mm of calvarial length.
Setting [8] is: in the presence of adrenomedullin.

No end group written: not given here. Some results are limits rather than exact numbers.

With “ADM(28-40) (HQIYQFTDKDKDN; listed as Homo sapiens) [adrenomedullin fragment, residues 28-40]”, the “cell number relative to control osteoblasts” value in experiment [1] is given as “statistically significant increase”. Besides, the thymidine incorporation entry in experiment [2] is recorded as “increased”.
In the same order, the values of “ADM(32-52) (QFTDKDKDNVAPRSKISPQGY; listed as Homo sapiens) [adrenomedullin fragment, residues 32-52]” are “statistically significant increase” and “increased”.
As to adrenomedullin, the “[3H]-thymidine incorporation” value in experiment [3] is “significantly increased”. Besides, the “45Ca release from prelabeled calvariae” value in experiment [4] is recorded as “no significant change”. The “duration for which stimulation of cell number was maintained” value in experiment [1] (1% FCS, actively-growing cells) is “at least 48 hours”. Further, in experiment [1] (24 hours, 1% FCS, actively-growing cells), the “adrenomedullin concentration at which a significant increase in cell number was observed” value is given as ≥ 10^−12 M. For the same substance, the “increase in actively-growing osteoblasts (cell number)” value in experiment [1] (24 hours, medium containing 1% FCS, actively-growing cells) is on record as “dose-dependent increase”. In addition, the “[3H]-thymidine incorporation” value in experiment [2] (actively-growing cells) is “significantly stimulated”. Besides, the “[3H]-thymidine incorporation” value in experiment [2] (growth-arrested cells) is reported as “significantly stimulated”. In addition, in experiment [5] (setting [6]), the “Bone Area” value was determined as 0.128, the “Eroded Pm” value is listed as 0.67, the “Number of Obs” value is reported as 105 and the “Number of Ocs” value was found to be 5.0. In addition, in experiment [5] (setting [6]), the “Ob Perimeter” value was 0.33, the “Oc Pm” value was 0.15, the “Osteoid Area” value worked out at 0.0032 and the “Periosteal Area” value amounted to 0.012. Besides, the Periosteal Area entry in experiment [5] (P=0.54) is on record as “not changed”. For the same substance, in experiment [5] (setting [7]), the “Bone Area” value turned out to be 0.114, the “Eroded Pm” value stood at 0.67, the “Number of Obs” value was 61 and the “Number of Ocs” value is given as 4.4. In addition, in experiment [5] (setting [7]), the “Ob Perimeter” value stood at 0.56, the “Oc Pm” value is 0.12, the “Osteoid Area” value is on record as 0.0012 and the “Periosteal Area” value was determined as 0.011. In addition, the “indices of osteoblast activity, ratio of injected to uninjected halves of each calvaria” value in experiment [5] (either dose of adrenomedullin, 5 daily local injections) is “two- to three-fold increases”. Besides, the “increase of mineralized bone area” value in experiment [5] (higher dose of adrenomedullin) stood at 13.6%. In experiment [5] (setting [8]), the “eroded perimeter, upward trend, ratio of injected to uninjected” value is on record as “significant” and the “resorption indices, ratio of injected to uninjected” value is “slight upward trends”.
In the case of “adrenomedullin(27-52) (AHQIYQFTDKDKDNVAPRSKISPQGY-NH2; listed as Homo sapiens) [fragment of adrenomedullin, residues 27-52, carboxyl terminal amidated]”, the “cell number relative to control osteoblasts” value in experiment [1] is “statistically significant increase”. Besides, the thymidine incorporation entry in experiment [2] is given as “increased”.

These data come from patent publication US6440421B1, “Treatment of bone disorders with adrenomedullin or adrenomedullin agonists” (Auchkland Uniservices Limited, priority 1996, dated 2002).
